Results taken from US5430058A, “Pharmaceutical compositions comprising hydroxamate derivatives for iron removal” (Yeda Research and Development Co. Ltd., priority 1993, dated 1995).

Tested on: ferritin
Experiment: Effect on iron in ferritin
Design: species or system horse
Details: after the same time of exposure
Description: Experimental testing of iron(III)-chelation properties RSF's were performed on human red blood cell lysates (normal and malaria parasitized), intact cells (4 hrs incubation times at 37° C.), free horse spleen ferritin (4-10 hrs at 37° C.) and ferritin-containing HEP-2 (human hepatoma) cells (4-10 hrs at 37° C.) using RSF1-ileu.

CC[C@H](C)[C@H](NC(=O)CCOCC(CC)(COCCC(=O)N[C@H](C(=O)N(C)O)[C@@H](C)CC)COCCC(=O)N[C@H](C(=O)N(C)O)[C@@H](C)CC)C(=O)N(C)O [SF1-ileu]
Effect on iron in ferritin: not substantially affecting iron in ferritin
